Patent EP0525360B1, “Novel phenylacetamide derivatives and processes for the preparation thereof” (KOREA RESEARCH INSTITUTE OF CHEMICAL TECHNOLOGY, priority 1991, dated 1993)
Like-named read-outs stand apart in the source and are kept apart here.

Assays:
[1] = system: Rats(Sprague-Dawley); assay: Tail-pinch test in rats with hyperalgesia induced by Freund's adjuvant; format: in vivo
Description: Rats(Sprague-Dawley) weighing 120g to 170g were used. Desiccated Mycobacterium butyricum(Difco Laboratories, Detroit, MI) was ground in a mortar, suspended in liquid paraffin, sterilized in an autoclave, and injected(0.5mg in 0.1mℓ, s.c.) in the distal region of the tail through a 1-inch 21-gauge needle. […] The hypersensitivity of the tail was examined as follows: the animal was held comfortably in one hand and gentle pressure was applied with the fingers of the opposite hand to the injected area. This gentle squeeze or "tail pinch" elicited a "squeak" from the animal. Five such stimuli were given at 4-second intervals. If the animal emitted no more than one squeak in five trials, it was recorded as having analgesia and given a rating of 1. […] The analgesic activity was determined by the following equation: Analgesic activity =(Total rating)/(Tested aminal number)x 100 [formula] The compound of Example 1, administered two hours before tail-pinch testing perorally, caused a dose related inhibition of adjuvant induced hyperalgesia, as shown in Table 6.

[2] = system: Rats(Sprague-Dawley, female); assay: Anti-inflammatory test (carrageenin paw edema); format: in vivo; conditions: Rattus norvegicus, sc; s. c., twenty minutes before carrageenin; edema volume 3 hours later; read-out: ED50
Description: Rats(Sprague-Dawley, female) weighing 100 to 120g were used. Twenty minutes after the test drug was administered(s. c.), carrageenin was injected(0.1mℓ of 1% solution, s. c.) in the plantar surface of the right hind paw.
The percentage of inhibition was determined by the following equation: Inhibition(%) =(Volume of the carrageenin treated foot - Volume of the control foot)/(Volume of the contol foot)x 100 [formula]

[3] = system: Rats(Sprague-Dawley, female); assay: Local anti-inflammatory test (transdermal, carrageenin paw edema); format: in vivo; conditions: for Double Dose(24 hr), percentage of inhibition: transdermal double dose (second application 7 hours later), edema measured 24 hours later; for Single Dose(1 hr), percentage of inhibition: transdermal single dose, edema measured 1 hour later
Description: Rats(Sprague-Dawley, female) weighing 100 to 120g were used. 20 minutes after the test drug was administered transdermally (another application 7 hours later for double dose experiment), carrageenin was injected(0.1ml of 1% solution, s. c.) into the plantar surface of the right hind paw. The volume of the edema was measured with a volumeter either 1 hour later for […] dose experiment or 24 hours later for double dose experiment; and the percentage of inhibition was measured by the same equation as used in Anti-inflammatory Test.

[4] = acute toxicity test; conditions: mouse, in vivo, po, per os, 5 weeks old, observed for 14 days
[5] = system: Male albino rats(120-170g) of the Charles River Sprague-Dawley strain; assay: Randall-Selitto test (yeast induced hyperalgesia); format: in vivo; conditions: dose 5 mg/Kg p. o.; 5 rats
Description: Randall-Selitto Test was carried out by following the method described in Arch. Int. Pharmacodyn.
Male albino rats(120-170g) of the Charles River Sprague-Dawley strain were used. Inflammation was produced by the injection of 0.1mℓ of a 20% suspension of Brewer's yeast into the plantar surface of the rat's hind foot.
The pain threshold was measured as the pressure in mmHg required to induce the desired response(a sharp audible squeak and/or struggle) when the pressure was applied to the foot. Air pressure from an air line was admitted through a needle valve to a 20mℓ glass syringe and to a pressure gauge which was connected by a T-tube. The syringe was mounted with the plunger downward to which was connected a short bullet-shaped Teflon peg. The pressure was applied to the foot of the rat at the rate of 10 mmHg per second. Drug was given 2 hours after the yeast injection. Two hours after the drug administration, threshold response was determined.
The analgesic activity was determined in terms of the percentage of inhibition of response: Inhibition(%) =(Threshold of the treated group - Threshold of the control group)/(Threshold of the control group)x 100 [formula]

[6] = Use Examples: administration of compositions to human subjects; format: in vivo
Description: One tablet was administered orally to a patient(weight: 67kg) in need of analgesia two times daily to successfully provide the effect of general analgesia.
The compound of Example 5 was dissolved in sesame oil with the aid of sonication and was packaged in soft gelatin capsules using the common methods known in the art.
The above ingredients were mixed to produce a syrup which was packaged under a sterile condition in 6 oz. bottles. One teaspoon of this formulation was administrated to a 70kg adult, reducing inflammation and producing analgesia.
The compound of Example 1 was dissolved in a solution containing the other ingredients.

[7] = system: mice; assay: Tail-flick test (radiant heat); format: in vivo
Description: Radiant heat was applied using a beam of high-intensity light focused on a tail spot. The response time, defined as the interval between the onset of the stimulus and the tail flick, was measured electronically(to the nearest 0.1 second). The beam intensity was set at a level giving a mean control reaction time of 3.8±0.4 seconds. […] The percentage of inhibition was determined by the following equation: Inhibition(%) =(Reaction time of the treated group - Reaction time of the control group)/(Reaction time of the control group)x 100 [formula]

[8] = system: mice; assay: Hot-plate test; format: in vivo; conditions: p. o.
Description: Mice were placed on an aluminum plate maintained at 55± 0.5°C by a thermo-regulator(Harvard). A glass cylinder, 15cm in height and 15cm in diameter, served to confine the mice to the heated plate. Blowing of the fore paws was used as the end-point for determination of response latency(measured to the neatest 0.1 second).

[9] = system: KTC-ICR mice; assay: acetic acid induced writhing test; format: in vivo; conditions: Mus musculus; oral; 0.9% acetic acid i.p. 60 minutes later; writhings during 10 minutes; mice 20 to 25g; Examples 1 to 32
Description: The KTC-ICR mice derived from Charles River Breeding Laboratory in the United States and provided by Experimental Animal Laboratory of Korea Research Institute of Chemical Technology were used as test animals. […] They were tested after having been adjusted to the testing environment for a week. Food and water were given freely; and illumination was maintained on a 12-hour cycle.
Experiments were performed in two ways: that is, the acetic acid induced writhing test and the phenyl-1,4-benzoquinone(PBQ) induced writhing test.
Solutions for the acetic acid induced writhing test were prepared by dissolving one of the end products prepared in Examples […] in a saline solution containing 1% by weight of Tween 80 to have a concentration of 5mg/mℓ and diluting it serially with the saline solution. The test solutions were administered orally in a dose of 0.3mℓ per 30g of body weight, using the 5 ICR mice for each test. 60 minutes later, 0.9% acetic acid solution was administered intraperitoneally in a dose of 0.1mℓ per 30g of body weight. 3 minutes thereafter, the number of writhings generated during a period of 10 minutes due to the administration of acetic acid was measured. For comparison purpose, initially, saline solution alone was administered orally to the control group. 60 minutes thereafter, 0.9% acetic acid solution was administered intraperitoneally to the control group.
The number of writhings suffered by the test group was compared with that of the control group; and the analgesic effect was measured in terms of the percentage of inhibition of writhing(I. W.). I. W. (%) =(A - B)/(A)x 100 [formula] A : the number of writhings suffered by the control group, B : the number of writhings suffered by the test group.
These ED50 values for the test compounds are shown in the last column of Table 1.

[10] = system: Salmonella typhimurium TA 100; assay: mutagenicity test (Maron and Ames); format: cell-based; conditions: 3.2, 16, 80 and 400µg/plate
Description: (§1) The numbers of mutated colonies were not increased at concentrations of 3.2, 16, 80 and 400µg/plate for the test compound.

[11] = system: Salmonella typhimurium TA98; assay: mutagenicity test (Maron and Ames); format: cell-based; conditions: 3.2, 16, 80 and 400µg/plate
Description: as §1

[12] = dose 5 mg/Kg, 7 rats, Example 1 perorally two hours before testing
[13] = 5 ICR female mice, read-out: LD50(female)
[14] = 5 ICR male mice, read-out: LD50(male)

## COc1ccc2cc([C@H](C)C(=O)O)ccc2c1 [Naproxen, reference compound]
[1]; [12]
  Analgesic activity(%): 28.6%
[2]
  ED50: 43 mg/kg
[3]
  Double Dose(24 hr), percentage of inhibition: 25%
  Single Dose(1 hr), percentage of inhibition: 54%

## COc1cc(CC(=O)NCCCc2ccc(C)c(C)c2)ccc1OCCN [Example 1, N-{3-(3,4-dimethylphenyl)propyl}-4-(2-aminoethoxy)-3-methoxyphenylacetamide]
[4]; [13]
  LD50 at 336 h: 364 mg/kg
[4]; [14]
  LD50 at 336 h: 224 mg/kg
[5]
  Inhibition(%): 247.4%
[6]; Use Example 5 liquid (4g in glycerol/water), 0.4mℓ on 80cm^2 of the forearm, 60kg male adult
  local analgesia after topical application: local analgesia which lasted for two days
[6]; Use Example 5 liquid, 0.4mℓ on 80cm^2 of the forearm, 60kg male adult
  skin irritation after topical application: Little or no skin irritation was observed
[1]; [12]
  Analgesic activity(%): 45.9%
[1]; dose 10 mg/Kg, 6 rats, perorally two hours before testing
  Analgesic activity(%): 66.7%
[7]; p. o., dose 1.25 mg/Kg
  Inhibition(%): 10%
[7]; p. o., dose 2.5 mg/Kg
  Inhibition(%): 60%
[7]; p. o., dose 5.0 mg/Kg
  Inhibition(%): 80%
[7]; p. o., dose 7.5 mg/Kg
  Inhibition(%): 90%
[7]; s. c., dose 0.5 mg/Kg
  Inhibition(%): 50%
[7]; s. c., dose 1.0 mg/Kg
  Inhibition(%): 70%
[8]; dose 2.5 mg/Kg
  Inhibition(%): 28.6%
[8]; dose 5.0 mg/Kg
  Inhibition(%): 48.9%
[8]; dose 10.0 mg/Kg
  Inhibition(%): 97.0%
[9]
  ED50: 0.08 mg/kg
[2]
  ED50: 4 mg/kg
[10]
  numbers of mutated colonies: not increased
[11]
  numbers of mutated colonies: not increased
[3]
  Double Dose(24 hr), percentage of inhibition: 32%
  Single Dose(1 hr), percentage of inhibition: 66%

## COc1cc(CC(=O)NCCCc2cccc(C)c2)ccc1OCCN [Example 5]
[4]; [13]
  LD50 at 336 h: 125 mg/kg
[4]; [14]
  LD50 at 336 h: 125 mg/kg
[6]; Use Example 2 soft gelatin capsules in sesame oil, two capsules, each 27mg of the composition, 63Kg person
  analgesic and anti-inflammatory effect in a human subject: producing the effects of analgesia and reducing inflammation
[9]
  ED50: 0.07 mg/kg
[2]
  ED50: 16.9 mg/kg
